Converted amounts (≈) assume the structure as drawn.

From patent US20100303754A1, “PROCESS FOR PREPARATION OF CYCLODEXTRIN OLIGOMERS OR POLYMERS, PRODUCTS OBTAINED AND USES” (BIOCYDEX, priority 2006, published 2010) come the findings set out here.

The series in a line: Solubilization tests of active ingredients by cyclodextrin dimers/trimer (soluble fraction analysed by CLHP). The series is classed as physicochemical. The following applies: thermodynamic from solid; Water alone, no cyclodextrin oligomer; stirred 24 hours; read-out: Amount of active ingredient solubilized in water. How it is done: Each solution is stirred for 24 hours, and then the soluble fractions are analyzed by CLHP after ultracentrifuging and filtration.
Take `C[C@@H](c1ncncc1F)[C@](O)(Cn1cncn1)c1ccc(F)cc1F` [Voriconazole]: the solubility at 24 h turned out to be 685 µg/mL (≈ 1960 µM). For `CC(=O)O[C@@]12CO[C@@H]1C[C@H](O)[C@@]1(C)C(=O)[C@H](O)C3=C(C)[C@@H](OC(=O)[C@H](O)[C@@H](NC(=O)OC(C)(C)C)c4ccccc4)C[C@@](O)([C@@H](OC(=O)c4ccccc4)[C@H]21)C3(C)C` [Taxotere] the value was 4 µg/mL (≈ 4.95 µM). Consider `CCC(=O)O[C@]1(C(=O)SCF)[C@H](C)C[C@H]2[C@@H]3C[C@H](F)C4=CC(=O)C=C[C@]4(C)[C@@]3(F)[C@@H](O)C[C@@]21C` [Fluticasone Propionate], for which the solubility at 24 h was 0.1 µg/mL (≈ 0.2 µM). For `CC(=O)O[C@H]1C(=O)[C@@]2(C)[C@H]([C@H](OC(=O)c3ccccc3)[C@]3(O)C[C@H](OC(=O)[C@H](O)[C@@H](NC(=O)c4ccccc4)c4ccccc4)C(C)=C1C3(C)C)[C@]1(OC(C)=O)CO[C@@H]1C[C@@H]2O` [Taxol] the value was 0.7 µg/mL (≈ 0.82 µM); for `CC[C@H]1OC(=O)[C@H](C)[C@@H](O[C@H]2C[C@@](C)(OC)[C@@H](O)[C@H](C)O2)[C@H](C)[C@@H](O[C@@H]2O[C@H](C)C[C@H](N(C)C)[C@H]2O)[C@](C)(O)C[C@@H](C)/C(=N\OCOCCOC)[C@H](C)[C@@H](O)[C@]1(C)O` [Roxithromycin], 464 µg/mL (≈ 555 µM).
